Experimental data taken from publication PMC6416464 (Drug Metabolism Letters, 2018).
Like-named read-outs stand apart in the source and are kept apart here.

Key:
[1] = Metabolic stability, incubation with human liver cytosol; format: in vitro ADME; settings: 1 µM test compound, 1 mg/mL protein
CYP3A4 = CYP3A4 (Homo sapiens, UniProt P08684); settings: microsomes
rCYP3A4 = rCYP3A4 (Homo sapiens, UniProt P08684)
[2] = cited from earlier work
[3] = Metabolic stability, incubation with human liver microsomes; settings: 1 µM test compound, 0.5 mg/mL protein
CYP1A2 = target: T1, CYP1A2 (Homo sapiens, UniProt P05177); experiment: CYP inhibition in human liver microsomes, CYP1A2; settings: inhibitor 10 µM; HLM; NI: No Inhibitin
T1 sequence (P05177 1-516): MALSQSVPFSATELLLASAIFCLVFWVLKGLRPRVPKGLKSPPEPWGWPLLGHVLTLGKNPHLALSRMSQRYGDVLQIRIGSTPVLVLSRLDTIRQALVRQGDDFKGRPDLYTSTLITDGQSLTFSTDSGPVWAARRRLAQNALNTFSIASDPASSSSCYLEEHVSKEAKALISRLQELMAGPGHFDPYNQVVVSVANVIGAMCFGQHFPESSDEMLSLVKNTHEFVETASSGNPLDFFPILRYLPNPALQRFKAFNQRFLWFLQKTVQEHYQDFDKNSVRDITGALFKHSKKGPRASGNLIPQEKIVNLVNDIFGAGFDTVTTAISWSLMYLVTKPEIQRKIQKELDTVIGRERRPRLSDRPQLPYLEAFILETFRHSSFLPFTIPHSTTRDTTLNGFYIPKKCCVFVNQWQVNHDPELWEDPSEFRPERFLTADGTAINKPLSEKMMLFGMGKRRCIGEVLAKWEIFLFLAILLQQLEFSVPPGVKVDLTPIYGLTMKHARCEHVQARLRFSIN

CYP2C8 = target: T2, CYP2C8 (Homo sapiens, UniProt P10632); experiment: CYP inhibition in human liver microsomes, CYP2C8; settings: HLM; for % Inhibition of Control Activity CYP2C8: NI: No Inhibitin
T2 sequence (P10632 1-490): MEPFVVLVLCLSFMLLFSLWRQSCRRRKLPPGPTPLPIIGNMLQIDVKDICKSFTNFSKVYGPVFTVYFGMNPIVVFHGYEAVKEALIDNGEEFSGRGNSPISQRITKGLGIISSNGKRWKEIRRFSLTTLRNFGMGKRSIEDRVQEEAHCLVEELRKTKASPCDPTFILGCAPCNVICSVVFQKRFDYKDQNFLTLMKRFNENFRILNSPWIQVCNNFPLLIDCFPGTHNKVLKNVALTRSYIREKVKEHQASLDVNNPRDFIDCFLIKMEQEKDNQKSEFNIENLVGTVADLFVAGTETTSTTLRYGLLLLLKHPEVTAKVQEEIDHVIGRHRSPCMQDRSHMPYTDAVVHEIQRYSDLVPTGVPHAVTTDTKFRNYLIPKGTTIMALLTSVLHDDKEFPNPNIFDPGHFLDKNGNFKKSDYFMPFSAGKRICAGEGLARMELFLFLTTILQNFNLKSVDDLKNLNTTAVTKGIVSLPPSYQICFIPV

CYP2C9 = CYP2C9 (Homo sapiens, UniProt P11712); experiment: CYP inhibition in human liver microsomes, CYP2C9; settings: HLM; for % Inhibition of Control Activity CYP2C9: NI: No Inhibitin
CYP2C9, sequence (P11712 whole entry): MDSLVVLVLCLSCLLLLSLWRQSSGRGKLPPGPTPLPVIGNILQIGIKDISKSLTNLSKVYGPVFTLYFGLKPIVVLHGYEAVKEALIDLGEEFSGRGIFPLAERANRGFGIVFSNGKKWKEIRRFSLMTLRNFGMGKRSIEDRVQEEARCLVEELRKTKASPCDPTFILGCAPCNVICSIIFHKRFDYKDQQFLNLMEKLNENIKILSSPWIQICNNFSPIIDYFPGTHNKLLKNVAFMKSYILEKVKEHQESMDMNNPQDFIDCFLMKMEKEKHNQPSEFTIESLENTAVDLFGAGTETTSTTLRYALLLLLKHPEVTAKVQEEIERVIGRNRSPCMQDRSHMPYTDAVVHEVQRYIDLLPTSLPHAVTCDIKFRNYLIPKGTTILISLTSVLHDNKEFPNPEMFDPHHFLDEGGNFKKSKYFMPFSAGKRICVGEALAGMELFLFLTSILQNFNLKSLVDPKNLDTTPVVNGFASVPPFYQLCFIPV

CYP2C19 = CYP2C19 (Homo sapiens, UniProt P33261); experiment: CYP inhibition in human liver microsomes, CYP2C19; settings: inhibitor 10 µM; HLM; NI: No Inhibitin
CYP2C19, sequence (P33261 whole entry): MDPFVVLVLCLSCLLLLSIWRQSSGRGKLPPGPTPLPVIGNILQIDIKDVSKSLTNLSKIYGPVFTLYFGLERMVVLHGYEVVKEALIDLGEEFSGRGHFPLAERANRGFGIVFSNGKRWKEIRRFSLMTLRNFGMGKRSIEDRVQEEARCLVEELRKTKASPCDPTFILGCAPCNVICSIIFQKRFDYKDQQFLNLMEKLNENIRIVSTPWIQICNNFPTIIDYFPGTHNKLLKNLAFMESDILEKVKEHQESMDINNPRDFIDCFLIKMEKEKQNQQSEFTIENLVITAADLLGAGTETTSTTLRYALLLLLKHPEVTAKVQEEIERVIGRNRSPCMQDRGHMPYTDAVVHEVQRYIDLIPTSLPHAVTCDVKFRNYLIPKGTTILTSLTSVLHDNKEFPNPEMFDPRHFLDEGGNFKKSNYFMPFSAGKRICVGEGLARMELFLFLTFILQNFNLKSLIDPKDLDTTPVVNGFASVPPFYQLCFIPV

rCYP1A2 = target: T3, rCYP1A2 (Homo sapiens, UniProt P05177); experiment: Metabolic stability / reaction phenotyping with recombinant human CYP1A2
T3 sequence (P05177 1-516): T1 sequence (P05177 1-516)

rCYP2C8 = target: T4, rCYP2C8 (Homo sapiens, UniProt P10632); experiment: Metabolic stability / reaction phenotyping with recombinant human CYP2C8; settings: 1 µM test compound; 100 pmol/mL; 30 min
T4 sequence (P10632 1-490): T2 sequence (P10632 1-490)

rCYP2C9 = rCYP2C9 (Homo sapiens, UniProt P11712); experiment: Metabolic stability / reaction phenotyping with recombinant human CYP2C9
rCYP2C9, sequence (P11712 whole entry): as the sequence (P11712 whole entry) above

rCYP2D6 = rCYP2D6 (Homo sapiens, UniProt P10635); experiment: Metabolic stability / reaction phenotyping with recombinant human CYP2D6; settings: 1 µM test compound; 100 pmol/mL; 30 min
rCYP2D6, sequence (P10635 whole entry): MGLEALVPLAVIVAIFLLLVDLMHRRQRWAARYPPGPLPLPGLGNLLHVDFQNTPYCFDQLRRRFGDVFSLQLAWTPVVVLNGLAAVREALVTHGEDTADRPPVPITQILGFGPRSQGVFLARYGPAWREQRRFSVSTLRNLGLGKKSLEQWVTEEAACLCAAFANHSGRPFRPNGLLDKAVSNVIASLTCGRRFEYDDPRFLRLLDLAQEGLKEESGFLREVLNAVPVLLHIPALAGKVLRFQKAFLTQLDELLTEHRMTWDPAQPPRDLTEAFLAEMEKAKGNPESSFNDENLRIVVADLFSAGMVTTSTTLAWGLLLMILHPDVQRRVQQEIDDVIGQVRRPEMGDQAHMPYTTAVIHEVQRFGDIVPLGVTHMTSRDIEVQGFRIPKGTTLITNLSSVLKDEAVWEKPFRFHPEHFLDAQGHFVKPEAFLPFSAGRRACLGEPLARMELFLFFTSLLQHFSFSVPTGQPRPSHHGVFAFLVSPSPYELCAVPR

rCYP2C19 = rCYP2C19 (Homo sapiens, UniProt P33261); experiment: Metabolic stability / reaction phenotyping with recombinant human CYP2C19
rCYP2C19, sequence (P33261 whole entry): as the sequence (P33261 whole entry) above

[4] = 1 µM test compound, 100 pmol/mL, 30 min

rCYP3A4, sequence (P08684 whole entry): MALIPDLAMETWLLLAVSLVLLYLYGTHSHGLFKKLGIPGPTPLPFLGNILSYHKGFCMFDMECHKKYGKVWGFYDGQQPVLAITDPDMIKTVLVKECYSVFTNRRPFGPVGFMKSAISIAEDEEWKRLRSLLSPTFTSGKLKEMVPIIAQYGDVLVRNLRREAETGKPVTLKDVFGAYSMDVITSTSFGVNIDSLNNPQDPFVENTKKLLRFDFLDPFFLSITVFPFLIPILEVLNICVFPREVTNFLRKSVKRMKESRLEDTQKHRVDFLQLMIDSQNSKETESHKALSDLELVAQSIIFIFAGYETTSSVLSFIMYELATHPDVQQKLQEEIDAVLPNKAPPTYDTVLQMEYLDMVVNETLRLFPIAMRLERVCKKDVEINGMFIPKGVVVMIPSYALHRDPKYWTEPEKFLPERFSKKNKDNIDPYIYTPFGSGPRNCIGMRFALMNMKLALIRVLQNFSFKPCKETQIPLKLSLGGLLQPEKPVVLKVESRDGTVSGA
CYP3A4, sequence (P08684 2-503): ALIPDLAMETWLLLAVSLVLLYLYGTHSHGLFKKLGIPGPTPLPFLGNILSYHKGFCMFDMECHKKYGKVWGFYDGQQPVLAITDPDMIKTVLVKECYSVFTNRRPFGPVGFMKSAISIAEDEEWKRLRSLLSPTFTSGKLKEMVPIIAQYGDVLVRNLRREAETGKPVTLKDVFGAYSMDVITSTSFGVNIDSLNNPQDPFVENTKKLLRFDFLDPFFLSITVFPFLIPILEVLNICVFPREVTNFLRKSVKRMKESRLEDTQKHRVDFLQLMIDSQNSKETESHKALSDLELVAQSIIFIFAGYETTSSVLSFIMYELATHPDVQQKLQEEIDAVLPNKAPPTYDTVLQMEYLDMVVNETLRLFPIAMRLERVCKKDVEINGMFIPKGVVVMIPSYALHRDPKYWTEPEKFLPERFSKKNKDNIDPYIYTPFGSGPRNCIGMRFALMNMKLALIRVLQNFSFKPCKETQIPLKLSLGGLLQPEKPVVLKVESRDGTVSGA

Substance: triclabendazole sulfone
- % Metabolized at 30 min Incubation with Human Liver Fractions/Enzymes Cytosol [1]: 0.00%
- % Inhibition of Control Activity CYP3A4 (substrate, testosterone) (CYP3A4; 2 µM): 4.09%
- % Inhibition of Control Activity CYP3A4 (substrate, testosterone) (CYP3A4; 10 µM): 8.63%
- Predicted Microsomal Clint, CYP3A4 (rCYP3A4): 3.591 µL/min/mg Protein
- % Metabolized at 30 min Incubation with Human Liver Fractions/Enzymes rCYP3A4 (rCYP3A4; [4]): 9.25%
- rCYP Clint, CYP3A4 (rCYP3A4; human, recombinant enzyme): 0.032 µL/min/pmol
- % Contribution of CYP Enzymes (fmCYP) in Metabolism, CYP3A4 (rCYP3A4; recombinant enzyme): 2.67%
- Cmax ([2]; human patients at therapeutic doses of triclabendazole): 2290 nM
- half-life ([2]; humans): 11 to 12 h
- % Metabolized at 30 min Incubation with Human Liver Fractions/Enzymes HLM [3]: 52.20%
- % Inhibition of Control Activity CYP1A2 (CYP1A2): 8.60%
- % Inhibition of Control Activity CYP2C8 (CYP2C8; inhibitor 2 µM): 65.36%
- % Inhibition of Control Activity CYP2C8 (CYP2C8; inhibitor 10 µM): 92.88%
- IC50 (CYP2C8; read-out: IC50 CYP 2C8): 1050 nM
- % Inhibition of Control Activity CYP2C9 (CYP2C9; inhibitor 2 µM): 78.78%
- % Inhibition of Control Activity CYP2C9 (CYP2C9; inhibitor 10 µM): 96.15%
- IC50 (CYP2C9; read-out: IC50 CYP 2C9): 690 nM
- % Inhibition of Control Activity CYP2C19 (CYP2C19): 5.05%
- Predicted Microsomal Clint, CYP1A2 (rCYP1A2): 0.069 µL/min/mg Protein
- % Metabolized at 30 min Incubation with Human Liver Fractions/Enzymes rCYP1A2 (rCYP1A2; [4]): 0.40%
- rCYP Clint, CYP1A2 (rCYP1A2; human, recombinant enzyme): 0.001 µL/min/pmol
- % Contribution of CYP Enzymes (fmCYP) in Metabolism, CYP1A2 (rCYP1A2; recombinant enzyme): 0.05%
- % Metabolized at 30 min Incubation with Human Liver Fractions/Enzymes rCYP2C8 (rCYP2C8): 0.00%
- Predicted Microsomal Clint, CYP2C9 (rCYP2C9): 130.447 µL/min/mg Protein
- % Metabolized at 30 min Incubation with Human Liver Fractions/Enzymes rCYP2C9 (rCYP2C9; [4]): 98.31%
- rCYP Clint, CYP2C9 (rCYP2C9; human, recombinant enzyme): 1.359 µL/min/pmol
- % Contribution of CYP Enzymes (fmCYP) in Metabolism, CYP2C9 (rCYP2C9; recombinant enzyme): 97.11%
- % Metabolized at 30 min Incubation with Human Liver Fractions/Enzymes rCYP2D6 (rCYP2D6): 0.00%
- Predicted Microsomal Clint, CYP2C19 (rCYP2C19): 0.228 µL/min/mg Protein
- % Metabolized at 30 min Incubation with Human Liver Fractions/Enzymes rCYP2C19 (rCYP2C19; [4]): 3.53%
- rCYP Clint, CYP2C19 (rCYP2C19; human, recombinant enzyme): 0.012 µL/min/pmol
- % Contribution of CYP Enzymes (fmCYP) in Metabolism, CYP2C19 (rCYP2C19; recombinant enzyme): 0.17%
